Drawing on ChEMBL document CHEMBL1140755, “Interaction of aliphatic cap group in inhibition of histone deacetylases by cyclic tetrapeptides” (Bioorg Med Chem, 2008), this text covers IC50 and Ratio IC50 for six molecules.

The target in one experiment is Histone deacetylase 4 (Homo sapiens, UniProt P56524). Briefly: Inhibition of HDAC4 expressed in 293T cells. The format is cell-based.
Another experiment has as its target Histone deacetylase 1 (Homo sapiens, UniProt Q13547). Briefly: Inhibition of HDAC1 expressed in 293T cells. The format is cell-based.
In experiment [1] the target is T1, Protein deacetylase HDAC6 (Homo sapiens, UniProt Q9UBN7).
T1 sequence (Q9UBN7 whole entry): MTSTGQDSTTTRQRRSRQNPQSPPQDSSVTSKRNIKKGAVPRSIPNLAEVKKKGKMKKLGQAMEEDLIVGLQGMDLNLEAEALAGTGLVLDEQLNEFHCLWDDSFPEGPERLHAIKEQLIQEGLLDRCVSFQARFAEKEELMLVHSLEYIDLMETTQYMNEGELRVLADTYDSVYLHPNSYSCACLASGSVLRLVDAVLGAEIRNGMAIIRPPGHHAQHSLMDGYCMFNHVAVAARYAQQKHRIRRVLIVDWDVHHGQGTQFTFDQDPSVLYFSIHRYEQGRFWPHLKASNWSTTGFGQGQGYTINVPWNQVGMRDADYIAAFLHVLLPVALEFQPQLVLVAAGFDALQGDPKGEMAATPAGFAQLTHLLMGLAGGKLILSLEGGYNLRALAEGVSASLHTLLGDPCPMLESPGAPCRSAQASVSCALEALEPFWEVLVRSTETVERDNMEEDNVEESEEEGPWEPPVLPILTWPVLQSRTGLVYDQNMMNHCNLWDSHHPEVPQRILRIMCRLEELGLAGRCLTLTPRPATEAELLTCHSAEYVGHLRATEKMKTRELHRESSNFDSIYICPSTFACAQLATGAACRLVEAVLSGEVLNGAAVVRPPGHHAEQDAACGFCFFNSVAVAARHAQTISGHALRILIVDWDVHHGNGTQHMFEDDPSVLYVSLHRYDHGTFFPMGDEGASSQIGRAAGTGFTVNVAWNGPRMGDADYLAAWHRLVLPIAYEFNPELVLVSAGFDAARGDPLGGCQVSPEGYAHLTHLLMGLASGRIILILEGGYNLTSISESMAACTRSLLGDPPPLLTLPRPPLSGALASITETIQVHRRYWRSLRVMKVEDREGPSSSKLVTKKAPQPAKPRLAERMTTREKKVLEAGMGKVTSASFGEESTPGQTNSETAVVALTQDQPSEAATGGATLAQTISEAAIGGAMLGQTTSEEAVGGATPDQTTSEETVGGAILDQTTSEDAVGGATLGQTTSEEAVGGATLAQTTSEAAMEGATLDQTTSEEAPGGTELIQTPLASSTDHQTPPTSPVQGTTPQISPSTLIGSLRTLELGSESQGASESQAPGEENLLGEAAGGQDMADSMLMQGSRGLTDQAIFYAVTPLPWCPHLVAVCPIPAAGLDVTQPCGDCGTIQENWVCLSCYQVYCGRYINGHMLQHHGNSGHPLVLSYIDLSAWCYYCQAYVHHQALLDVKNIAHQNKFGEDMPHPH
Briefly: Inhibition of HDAC6 expressed in 293T cells. The class given is cell-based.

A short description of experiment [2]: Selectivity of IC50 for HDAC6 to IC50 for HDAC1.

Each structure is given as a SMILES string. Non-standard residues stand in square brackets, D forms with d. Residues, ends and D or L forms follow the SMILES beside them. Ahp(7-SS(2-pyridyl)) = N[C@@H](CCCCCSSc1ccccn1)C(=O)O; Aib = CC(C)(N)C(=O)O

Sequence of Histone deacetylase 4 (P56524 whole entry): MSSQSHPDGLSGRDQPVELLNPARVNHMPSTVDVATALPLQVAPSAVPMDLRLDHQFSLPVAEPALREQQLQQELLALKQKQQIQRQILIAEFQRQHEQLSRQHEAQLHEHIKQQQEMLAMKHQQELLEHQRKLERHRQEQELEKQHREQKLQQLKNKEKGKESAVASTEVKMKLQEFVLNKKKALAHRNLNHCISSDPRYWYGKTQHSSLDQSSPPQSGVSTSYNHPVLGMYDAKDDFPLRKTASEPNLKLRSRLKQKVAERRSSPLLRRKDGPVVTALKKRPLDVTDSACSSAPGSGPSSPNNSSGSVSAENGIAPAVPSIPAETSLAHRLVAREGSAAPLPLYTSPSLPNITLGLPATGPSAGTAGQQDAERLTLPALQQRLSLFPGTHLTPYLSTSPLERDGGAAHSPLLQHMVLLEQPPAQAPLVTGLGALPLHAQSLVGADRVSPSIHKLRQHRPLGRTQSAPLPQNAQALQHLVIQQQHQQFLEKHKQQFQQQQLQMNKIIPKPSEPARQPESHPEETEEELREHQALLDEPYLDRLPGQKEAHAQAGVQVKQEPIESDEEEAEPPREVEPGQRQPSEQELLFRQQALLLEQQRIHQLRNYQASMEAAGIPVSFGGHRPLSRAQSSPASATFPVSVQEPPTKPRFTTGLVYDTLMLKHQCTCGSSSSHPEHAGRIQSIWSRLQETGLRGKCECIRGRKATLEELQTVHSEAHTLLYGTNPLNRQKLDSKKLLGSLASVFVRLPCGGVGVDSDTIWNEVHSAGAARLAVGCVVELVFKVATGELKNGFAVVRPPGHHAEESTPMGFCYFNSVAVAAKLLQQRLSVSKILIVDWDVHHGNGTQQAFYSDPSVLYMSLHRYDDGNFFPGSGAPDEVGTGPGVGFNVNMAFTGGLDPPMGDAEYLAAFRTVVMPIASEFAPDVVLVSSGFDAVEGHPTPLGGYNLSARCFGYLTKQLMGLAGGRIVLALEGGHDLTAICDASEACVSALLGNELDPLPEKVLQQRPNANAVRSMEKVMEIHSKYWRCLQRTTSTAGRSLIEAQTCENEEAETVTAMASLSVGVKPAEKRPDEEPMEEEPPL
Sequence of Histone deacetylase 1 (Q13547 whole entry): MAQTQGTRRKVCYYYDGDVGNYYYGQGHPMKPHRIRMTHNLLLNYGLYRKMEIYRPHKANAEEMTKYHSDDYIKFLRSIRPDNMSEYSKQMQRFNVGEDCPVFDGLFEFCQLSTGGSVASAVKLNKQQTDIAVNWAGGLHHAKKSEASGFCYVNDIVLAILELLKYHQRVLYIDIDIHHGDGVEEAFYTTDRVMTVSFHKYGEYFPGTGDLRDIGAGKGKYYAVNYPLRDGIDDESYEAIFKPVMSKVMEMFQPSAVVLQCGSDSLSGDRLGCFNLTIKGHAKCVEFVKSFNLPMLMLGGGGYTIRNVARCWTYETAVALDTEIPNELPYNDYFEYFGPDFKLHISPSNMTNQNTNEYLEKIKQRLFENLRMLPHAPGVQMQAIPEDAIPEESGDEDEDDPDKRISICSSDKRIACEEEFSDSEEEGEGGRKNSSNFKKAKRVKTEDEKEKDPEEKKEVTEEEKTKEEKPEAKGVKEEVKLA

Usually IC50 stands for the point on the concentration scale where inhibition reaches its midpoint. High values mean lower potency, low ones higher potency. With `CC[C@H](C)[C@@H]1NC(=O)C(C)(C)NC(=O)[C@H](CCCCCSSc2ccccn2)NC(=O)[C@H]2CCCN2C1=O`, the IC50 at Histone deacetylase 4 was 23 nM; on Histone deacetylase 1, 38 nM; in experiment [1], 310 nM.
On the same counts, the results for `CC(C)C[C@@H]1NC(=O)C(C)(C)NC(=O)[C@H](CCCCCSSc2ccccn2)NC(=O)[C@H]2CCCN2C1=O` are 33 nM, 58 nM and 230 nM.
Regarding `CC1(C)NC(=O)[C@H](CCCCCSSc2ccccn2)NC(=O)[C@H]2CCCN2C(=O)[C@H](Cc2ccccc2)NC1=O` (cyclo([Aib]F[dP][Ahp(7-SS(2-pyridyl))])), the Ratio IC50 in experiment [2] came to 10.3. For the same molecule, the IC50 was found to be 18 nM against Histone deacetylase 4, 39 nM against Histone deacetylase 1 and 404 nM in experiment [1].
Turning to `C[C@@H]1NC(=O)C(C)(C)NC(=O)[C@H](CCCCCSSc2ccccn2)NC(=O)[C@H]2CCCN2C1=O` (cyclo(A[dP][Ahp(7-SS(2-pyridyl))][Aib])), the IC50 amounted to 52 nM against Histone deacetylase 4, 94 nM on Histone deacetylase 1 and 430 nM in experiment [1].
On to `O=C1N[C@@H]2CCCCCCCCCCCC[C@H](NC2=O)C(=O)N2CCC[C@@H]2C(=O)N[C@H]1CCCCCSSc1ccccn1`, for which, in experiment [2], the Ratio IC50 was found to be 140. The IC50 against Histone deacetylase 4 worked out at 20 nM; against Histone deacetylase 1 it was 35 nM; in experiment [1], 4900 nM.
As for `CCCC[C@@H]1NC(=O)C(C)(C)NC(=O)[C@H](CCCCCSSc2ccccn2)NC(=O)[C@H]2CCCN2C1=O`, the IC50 at Histone deacetylase 4 was 24 nM; against Histone deacetylase 1 it was 38 nM; in experiment [1], 280 nM.
